Reference: PubChem BioAssay (NCI)
“And” between values parts separate entries of the source, which are not always exact repeats. Identical values can stand only once.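 The compound was tested at five concentrations on cells cultured in 96-well plates, with a 48-hour exposure period. The concentration for 50% growth inhibition is given as GI50. The concentration for full growth arrest is given as TGI.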

Legend:
Assay in all cases: DTP human tumour cell line panel, 48 h
LOX IMVI melanoma = test system: LOX IMVI melanoma
SN12C renal = test system: SN12C renal
HT29 colon = test system: HT29 colon
RXF 393 renal = test system: RXF 393 renal
NCI-H226 lung = test system: NCI-H226 lung
HCT-116 colon = test system: HCT-116 colon
SR leukemia = test system: SR leukemia
SF-539 CNS = test system: SF-539 CNS
DU-145 prostate = test system: DU-145 prostate
HS 578T breast = test system: HS 578T breast

Compound	GI50 (LOX IMVI melanoma)	TGI (LOX IMVI melanoma)	GI50 (SN12C renal)	TGI (SN12C renal)	GI50 (HT29 colon)	TGI (HT29 colon)	GI50 (RXF 393 renal)	TGI (RXF 393 renal)	TGI (NCI-H226 lung) [µM]	GI50 (HCT-116 colon)	TGI (HCT-116 colon)	GI50 (SR leukemia)	TGI (SR leukemia) [µM]	GI50 (SF-539 CNS)	TGI (SF-539 CNS)	TGI (DU-145 prostate) [µM]	GI50 (HS 578T breast)	TGI (HS 578T breast)	GI50 (NCI-H226 lung)	GI50 (DU-145 prostate)
O=C1C(CN(Cc2ccccc2)Cc2ccccc2)CCCC1CN(Cc1ccccc1)Cc1ccccc1 (stereo unspecified)	14.1 µM and > 77.1 µM	28.3 µM and > 100 µM	13.1 µM and > 79 µM	25.8 µM and > 100 µM	25.7 µM and 59.3 µM	47.1 µM and > 100 µM	20.1 µM and > 100 µM	> 100 µM	> 100	14.6 µM and 70.3 µM	21.5 µM and > 100 µM	77.3 µM	> 100	17.2 µM and 50.5 µM	33.1 µM and > 100 µM	> 100	> 100 µM and 28.1 µM	> 100 µM		
O=[N+]([O-])c1ccc(Oc2cccnc2)c([N+](=O)[O-])c1	3.16 µM	13.3 µM	4.3 µM	23.2 µM	3.5 µM	13.8 µM	3.8 µM	14.7 µM	25.5	2.43 µM	6.22 µM	4.19 µM	> 100	3.21 µM	12.1 µM	7.44	46 µM	> 100 µM	2.97 µM	2.96 µM
Nc1cccc(-c2nc3sccn3c2-c2ccnc(NCCCNS(=O)(=O)c3ccc(C(F)(F)F)cc3)n2)c1	3.27 µM	16.1 µM	4.36 µM	> 100 µM	2.85 µM	13.7 µM	6.29 µM	> 100 µM	16.5	3.55 µM	30.5 µM	3.84 µM	43.9	6.66 µM	29.6 µM	35.6	4.05 µM	61.6 µM	3.14 µM	4.26 µM
Cc1nc(NC(=O)COc2cccc(/C=C3\COc4ccccc4C3=O)c2)sc1C	1.01 µM	2.55 µM	2.01 µM	4.63 µM	1.89 µM	4.14 µM	1.78 µM	3.48 µM	9.66	1.53 µM	3.04 µM	0.872 µM	> 100	1.73 µM	3.46 µM	4.09	2.72 µM	8.6 µM	3.32 µM	2.1 µM
Cc1ccccc1NC(=O)N/C(N)=N/c1nc2ccccc2s1	0.0759 µM	> 100 µM	0.0853 µM	> 100 µM	0.039 µM	> 100 µM	0.03 µM	0.464 µM	> 100	0.0456 µM		0.0392 µM	> 100	0.041 µM	0.725 µM	> 100	0.0494 µM	> 100 µM	0.589 µM	0.0833 µM
CCNC(=O)Nc1ccc(-c2nc3c(c(N4CCOC[C@@H]4C)n2)CCN(C2COC2)C3)cc1	0.411 µM and 0.329 µM	> 100 µM	0.31 µM and 0.285 µM	> 100 µM	0.587 µM and 0.409 µM	> 100 µM	0.137 µM and 0.125 µM	0.727 µM and 0.857 µM		1.19 µM and 0.78 µM	> 100 µM	0.439 µM and 0.416 µM	> 100	0.247 µM and 0.336 µM	1.85 µM and 3.53 µM	> 100	0.155 µM and 0.146 µM	0.804 µM and 0.93 µM	0.247 µM and 0.119 µM	0.562 µM and 0.435 µM
